Measurements: US20140323346A1, “BINDING AGENT” (Garvan Institute of Medical Research, priority 2011, published 2014)

What was measured:
[1] = tested on: protein kinases in MDA-MB-231 breast cancer cell lysates; test: Affinity purification of kinases from MDA-MB-231 cell lysates on inhibitor resins, bound proteins identified by LC-MS/MS; type: binding, Homo sapiens; conditions: MDA-MB-231 lysate
Method: MDA-MB-231 cells were cultured in RPMI1640 (Invitrogen) supplemented with 10% fetal bovine serum (Invitrogen) and insulin at 0.25 IU/ml. Subconfluent cells were lysed with ice-cold lysis buffer containing 50 mM HEPES-NaOH (pH 7.5), 150 mM NaCl, 0.5% Triton X-100, 1 mM EDTA 1 mM EGTA supplemented with additives (10 μg/ml aprotinin, 10 μg/ml leupeptin, 1 mM PMSF, 10 mM NaF, 50 ng/ml calyculin A, 1% phosphatase inhibitor mixture 3 (Sigma), and 2.5 mM Na3VO4) for 5 min on ice. Cell debris was removed by centrifugation at 16,500 g at 4° C. for 30 min and the supernatant was subsequently filtered through a 0.45 μm PVDF membrane (Millipore). Protein concentrations were measured by the Bradford assay (Bio-Rad).
Kinase inhibitors Purvalanol B (Tocris) and SU6668 (Biochempartner Chemical) were immobilized to EAH-sepharose 4B (GE Healthcare) and VI16832 (Evotec) was coupled to ECH-sepharose 4B (GE Healthcare) beads via a carbodiimide-mediated reaction. Briefly, 1 ml of beads were washed 3 times with 10 ml of 0.5 M NaCl, twice with 10 ml H2O and once with coupling buffer made of 50% dimethylformamide (DMF) and 50% ethanol. The washed and aspirated beads were then mixed with 1 ml of inhibitor solution (Purvalanol B at 10 mM, SU6668 at 10 mM and VI16832 at 3 mM dissolved in coupling buffer), followed by dropwise addition of 150 μl of 1 M N-(3-dimethylaminopropyl)-N-ethylcarbodiimide hydrochloride (EDC) in coupling buffer.
The coupling reaction was carried out in the dark at room temperature overnight on a rotating wheel. To block the remaining reactive groups, the resin was washed twice with 2 ml of coupling buffer followed by addition of 1 ml of DMF/ethanol/ethanolamine at ratio 1:1:1 (pH 8). The reaction was initiated by dropwise addition of 150 μl of 1 M EDC in coupling buffer and the mixture was then incubated again in the dark at room temperature overnight with gentle agitation. Subsequently the resin was washed 3 times with 10 ml of coupling buffer, twice with 10 ml of 0.5 M NaCl and once with 10 ml of 20% ethanol. The resin was stored in 20% ethanol as a suspension at 4° C. in the dark. For CTx-0294885 immobilization, activated CH Sepharose 4B (GE Healthcare) (0.5 g) was swelled with 20 ml of 1 mM HCl and collected by vacuum filtration. The collected resin was washed 4 times with 20 ml of 1 mM HCl, and mixed with 3 ml of CTx-0294885 (9 mM) dissolved in 50% DMF 50% 100 mM sodium bicarbonate (pH 8). The suspension was agitated on a shaker table for 18 h. The mixture was washed with 5 ml of 50% aqueous DMF and the resin was resuspended in IM ethanolamine in 50% aqueous DMF. The mixture was agitated for 1 h before the resin was collected by filtration and washed 5 times with 5 ml of 50% aqueous DMF, 10 times with 10 ml of 0.1 M acetate buffer (pH 4), 10 times with 10 ml of 0.1 M bicarbonate buffer (pH 8), and 10 times of 10 ml 20% ethanol. The resin was resuspended in 10 ml of 20% ethanol and stored at 4° C. An equally suitable alternative protocol for CTx-0294885 immobilization is described in Example 2.
The salt concentration in the protein lysates was adjusted to 1 M NaCl and the kinase inhibitor resins were washed once with 10 ml of H2O and once with 10 ml of washing buffer A (lysis buffer with 1 M NaCl plus 10 mM NaF and 0.1 mM Na3VO4) prior to kinase enrichment. For testing of single kinase inhibitors, 1 ml of inhibitor resin was incubated with 50 mg of protein lysates, and for multi-inhibitor resins, a cocktail comprising 1 ml of each inhibitor resin was used for incubation with 100 mg of protein lysates. After 2 h of incubation at 4° C. in the dark on a rotating wheel, the resins were washed twice with 10 ml of washing buffer A, once with 10 ml of washing buffer B (same as washing buffer A except NaCl concentration is 150 mM instead of 1 M) and once with washing buffer C (50 mM HEPES, 10 mM NaF and 0.1 mM Na3VO4). […]

[2] = tested on: protein kinases from three different cell lines; conditions: cited from earlier work

Row | Compound | proteins identified ([1]; CTx-0294885 coupled to CL sepharose 4B beads, single resin) | kinases of the RGC (receptor guanylate cyclase) family identified ([1]; FIG. 2A) | major kinase subgroups with representatives identified ([1]; FIG. 2A) | relative enrichment of kinase families ([1]; FIG. 2B) | kinases bound that are not bound by the other reagents (P, S, V) ([1]; comparison with purvalanol B, SU6668 and VI16832 columns) | enrichment of non-protein kinases ([1]; gene ontology analysis, FIG. 2C) | kinase identifications if phosphosites are included (kinases bound) ([1]; single resin) | kinases identified among the proteins identified ([1]; single resin, phosphosites not included) | protein kinases detected in total [2]
1 | CNC(=O)c1ccccc1Nc1nc(Nc2ccc(N3CCNCC3)cc2)ncc1Cl [CTx-0294885, 2-((5-Chloro-2-((4-(piperazin-1-yl)phenyl)amino)pyrimidin-4-yl)amino)-N-methylbenzamide] | 2546 | No kinases from the minor RGC (receptor guanylate cyclase) family were identified | 9 | particularly strong enrichment for kinases of the STE, CMGC and AGC subfamilies | 77 | enrichment for other purine nucleotide binding proteins | 240 | 185 | 
2 | NCCOc1ccc(Nc2ncc3ccc(=O)n(C4CC5CCC4C5)c3n2)cc1 (stereo not drawn) [VI16832] |  |  |  |  |  |  |  |  | 170
